Target: T1, AXL (Homo sapiens, UniProt P30530)
T1 construct: endogenous in cells; host or cells: A-172 glioblastoma cells (ATCC #CRL-1620)
T1 sequence (P30530 26-894): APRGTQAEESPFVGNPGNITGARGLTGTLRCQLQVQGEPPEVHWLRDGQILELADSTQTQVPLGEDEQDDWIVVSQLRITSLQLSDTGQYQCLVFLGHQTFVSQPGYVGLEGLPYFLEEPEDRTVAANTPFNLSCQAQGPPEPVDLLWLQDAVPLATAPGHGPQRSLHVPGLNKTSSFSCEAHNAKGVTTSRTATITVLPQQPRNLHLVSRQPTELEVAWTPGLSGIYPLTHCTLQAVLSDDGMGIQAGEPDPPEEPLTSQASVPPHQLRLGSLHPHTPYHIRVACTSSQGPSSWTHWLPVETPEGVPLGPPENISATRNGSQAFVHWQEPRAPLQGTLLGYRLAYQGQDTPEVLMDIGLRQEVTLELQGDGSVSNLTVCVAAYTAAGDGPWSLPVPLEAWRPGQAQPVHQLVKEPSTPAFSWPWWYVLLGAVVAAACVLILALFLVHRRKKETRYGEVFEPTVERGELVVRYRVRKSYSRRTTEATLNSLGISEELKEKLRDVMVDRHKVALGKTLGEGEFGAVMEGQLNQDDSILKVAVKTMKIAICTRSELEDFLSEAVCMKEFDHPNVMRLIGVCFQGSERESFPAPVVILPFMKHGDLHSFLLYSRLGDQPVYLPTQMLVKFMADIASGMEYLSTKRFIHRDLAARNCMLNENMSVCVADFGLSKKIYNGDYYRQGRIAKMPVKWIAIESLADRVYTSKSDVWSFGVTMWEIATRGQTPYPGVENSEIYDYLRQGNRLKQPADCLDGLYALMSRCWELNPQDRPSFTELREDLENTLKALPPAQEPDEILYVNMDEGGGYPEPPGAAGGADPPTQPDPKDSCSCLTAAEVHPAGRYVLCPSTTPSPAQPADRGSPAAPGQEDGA
Assay: AXL autophosphorylation ELISA in A-172 cells
Type: cell-based
Settings: Table 3 Cellular Activities, Gas6-stimulated, phospho-AXL ELISA
Summary of the method: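 A-172 glioblastoma cells serum-starved 24 h, treated 1 h with compounds (8-point dose curve, 0.3% DMSO), then stimulated with 1 μg/mL Gas6 for 15 min. Lysate phospho-AXL quantified by ELISA against a standard; IC50 from 4-parameter logistic fit, normalised to DMSO and reference-inhibitor controls.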

Row | SMILES | IC50 [nM]
1 | COc1cc2nccc(Oc3ccc(NC(=O)c4cnc(C)c(-c5ccc(C)o5)c4O)cc3F)c2nc1OC [Compound 92, N-[4-[(6,7-Dimethoxy-1,5-naphthyridin-4-yl)oxy]-3-fluoro-phenyl]-4-hydroxy-6-methyl-5-(5-methyl-2-furyl)pyridine-3-carboxamide] | ≤ 100
2 | COc1cc2nccc(Oc3ccc(NC(=O)c4cnc(C)c(-c5cnoc5)c4O)cc3F)c2nc1OC [Compound 140, N-[4-[(6,7-Dimethoxy-1,5-naphthyridin-4-yl)oxy]-3-fluorophenyl]-4-hydroxy-6-methyl-5-(1,2-oxazol-4-yl)pyridine-3-carboxamide] | ≤ 100
3 | COc1ccc2nccc(Oc3ccc(NC(=O)c4cnc(C)c(-c5cccs5)c4O)cc3F)c2n1 [Compound 128, N-[3-Fluoro-4-[(6-methoxy-1,5-naphthyridin-4-yl)oxy]phenyl]-4-hydroxy-6-methyl-5-thiophen-2-ylpyridine-3-carboxamide] | ≤ 100
4 | COc1cc2nccc(Oc3ccc(NC(=O)c4cnc(C)c(-c5cc(C)nn5C)c4O)cc3F)c2nc1OC [Compound 136, N-[4-[(6,7-Dimethoxy-1,5-naphthyridin-4-yl)oxy]-3-fluorophenyl]-5-(2,5-dimethylpyrazol-3-yl)-4-hydroxy-6-methylpyridine-3-carboxamide] | 100 to 300
5 | COc1cc2nccc(Oc3ccc(NC(=O)c4cnc(C)c(-c5cncs5)c4O)cc3F)c2nc1OC [Compound 141, N-[4-[(6,7-Dimethoxy-1,5-naphthyridin-4-yl)oxy]-3-fluorophenyl]-4-hydroxy-6-methyl-5-(1,3-thiazol-5-yl)pyridine-3-carboxamide] | ≤ 100
6 | COc1cc2nccc(Oc3ccc(NC(=O)c4cnc(C)c(-c5ccc(C(C)C)o5)c4O)cc3F)c2nc1OC [Compound 154, N-[4-[(6,7-Dimethoxy-1,5-naphthyridin-4-yl)oxy]-3-fluorophenyl]-4-hydroxy-6-methyl-5-(5-propan-2-ylfuran-2-yl)pyridine-3-carboxamide] | ≤ 100
7 | COc1cc2nccc(Oc3ccc(NC(=O)c4c(C)nc(C)c(-c5ccoc5)c4O)cc3F)c2nc1OC [Compound 112, N-[4-[(6,7-Dimethoxy-1,5-naphthyridin-4-yl)oxy]-3-fluoro-phenyl]-5-(3-furyl)-4-hydroxy-2,6-dimethyl-pyridine-3-carboxamide] | ≤ 100

Second part, the molecule after the results:

Row | IC50 [nM] | SMILES
8 | ≤ 100 | COc1cc2nccc(Oc3ccc(NC(=O)c4c(C)nc(C)c(-c5ccco5)c4O)cc3F)c2nc1OC [Compound 135, N-[4-[(6,7-Dimethoxy-1,5-naphthyridin-4-yl)oxy]-3-fluorophenyl]-5-(furan-2-yl)-4-hydroxy-2,6-dimethylpyridine-3-carboxamide]
9 | ≤ 100 | COc1cc2nccc(Oc3ccc(NC(=O)c4c(C)nc(C)c(-c5ccc(C(C)C)o5)c4O)cc3F)c2nc1OC [Compound 148, N-[4-[(6,7-Dimethoxy-1,5-naphthyridin-4-yl)oxy]-3-fluorophenyl]-4-hydroxy-2,6-dimethyl-5-(5-propan-2-ylfuran-2-yl)pyridine-3-carboxamide]
10 | 100 to 300 | C=C(C)c1ccc(-c2c(C)ncc(C(=O)Nc3ccc(Oc4ccnc5cc(OC)c(OC)nc45)c(F)c3)c2O)o1 [Compound 152, N-[4-[(6,7-Dimethoxy-1,5-naphthyridin-4-yl)oxy]-3-fluorophenyl]-4-hydroxy-6-methyl-5-(5-prop-1-en-2-ylfuran-2-yl)pyridine-3-carboxamide]
11 | ≤ 100 | COc1cnc2c(Oc3ccc(NC(=O)c4cn(CCF)c(C)c(-c5cccs5)c4=O)cc3F)ccnc2c1 [Compound 331, 1-(2-Fluoroethyl)-N-[3-fluoro-4-[(7-methoxy-1,5-naphthyridin-4-yl)oxy]phenyl]-6-methyl-4-oxo-5-thiophen-2-ylpyridine-3-carboxamide]
12 | ≤ 100 | COc1ccc2nccc(Oc3ccc(NC(=O)c4cnc(C)c(-c5ccco5)c4O)cc3F)c2n1 [Compound 118, N-[3-Fluoro-4-[(6-methoxy-1,5-naphthyridin-4-yl)oxy]phenyl]-5-(furan-2-yl)-4-hydroxy-6-methylpyridine-3-carboxamide]

— patent publication US20230151003A1, “COMPOUNDS AND METHODS OF USE” (Exelixis, Inc., priority 2020, published 2023)
